The text below walks through data of patent US10787452B2 (Vertex Pharmaceuticals Incorporated, priority 2012, dated 2020).

Molecules are shown by their SMILES.

The test concerns HCT116 colorectal cancer cells. In words: Cisplatin sensitization assay (96 h cell viability MTS).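 Also: compound concentration needed to lower the Cisplatin-alone IC50 by a set fold.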 The format is cell-based. To be noted: 96 h MTS, compound plus Cisplatin. A digest of the protocol: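 Full-matrix combination: compound × cisplatin, 2-fold dilutions from 10 μM top final, co-added; 96 h, 37° C, 5% CO2; MTS read-out after 1 h.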
With `CN1CCN2CCN(c3ccncc3NC(=O)c3c(N)nn4cc(F)cnc34)CC2C1=O` (stereo not shown) [I-N-233, 2-amino-6-fluoro-N-(4-(8-methyl-9-oxohexahydro-1H-pyrazino[1,2-a]pyrazin-2(6H)-yl)pyridin-3-yl)pyrazolo[1,5-a]pyrimidine-3-carboxamide], the “Cisplatin Sensitization Assay” value was “++ (Compounds with a Cisplatin sensitization value >0.02 μM but <0.2 μM are marked with “++.”)”.

As for `CN(C)C(=O)C1CN(c2ccncc2NC(=O)c2c(N)nn3cc(F)cnc23)CCO1` (stereo not shown) [I-N-234, 4-(3-(2-amino-6-fluoropyrazolo[1,5-a]pyrimidine-3-carboxamido)pyridin-4-yl)-N,N-dimethylmorpholine-2-carboxamide], the “Cisplatin Sensitization Assay” value is given as “+ (Compounds with a Cisplatin sensitization value >0.2 μM but <5 μM are marked with “+.”)”.

Consider `CN1C(=O)CCC12CCN(c1ccncc1NC(=O)c1c(N)nn3cc(F)cnc13)CC2` [I-N-235, 2-amino-6-fluoro-N-(4-(1-methyl-2-oxo-1,8-diazaspiro[4.5]decan-8-yl)pyridin-3-yl)pyrazolo[1,5-a]pyrimidine-3-carboxamide], for which the “Cisplatin Sensitization Assay” value is recorded as “++ (Compounds with a Cisplatin sensitization value >0.02 μM but <0.2 μM are marked with “++.”)”.

For `CN1CC2(CCN(c3ccncc3NC(=O)c3c(N)nn4cc(F)cnc34)CC2)CC1=O` [I-N-236, 2-amino-6-fluoro-N-(4-(2-methyl-3-oxo-2,8-diazaspiro[4.5]decan-8-yl)pyridin-3-yl)pyrazolo[1,5-a]pyrimidine-3-carboxamide], the “Cisplatin Sensitization Assay” value is “+++ (Compounds with a Cisplatin sensitization value of <0.02 μM are marked with “+++.”)”.

On to `Cc1cncc(NC(=O)c2c(N)nn3cc(F)cnc23)c1-n1nccc1C` [I-N-237], for which the “Cisplatin Sensitization Assay” value is listed as “+ (Compounds with a Cisplatin sensitization value >0.2 μM but <5 μM are marked with “+.”)”.

For the compound `Nc1nn2cc(F)cnc2c1C(=O)Nc1cnccc1N1CCN2C(=O)OCC2C1` (stereo not shown) [I-N-238, 2-amino-6-fluoro-N-(4-(3-oxotetrahydro-1H-oxazolo[3,4-a]pyrazin-7(3H)-yl)pyridin-3-yl)pyrazolo[1,5-a]pyrimidine-3-carboxamide], the “Cisplatin Sensitization Assay” value is recorded as “++ (Compounds with a Cisplatin sensitization value >0.02 μM but <0.2 μM are marked with “++.”)”.

As for `Nc1nn2cc(F)cnc2c1C(=O)Nc1cncc(F)c1N1CCC2(CC1)COC2` [I-N-239, 2-amino-6-fluoro-N-(5-fluoro-4-(2-oxa-7-azaspiro[3.5]nonan-7-yl)pyridin-3-yl)pyrazolo[1,5-a]pyrimidine-3-carboxamide], the “Cisplatin Sensitization Assay” value is “+++ (Compounds with a Cisplatin sensitization value of <0.02 μM are marked with “+++.”)”.

Regarding `CN1CCN2CCN(c3c(F)cncc3NC(=O)c3c(N)nn4cc(F)cnc34)CC2C1=O` (stereo not shown) [I-N-240, 2-amino-6-fluoro-N-(5-fluoro-4-(8-methyl-9-oxohexahydro-1H-pyrazino[1,2-a]pyrazin-2(6H)-yl)pyridin-3-yl)pyrazolo[1,5-a]pyrimidine-3-carboxamide], the “Cisplatin Sensitization Assay” value is recorded as “++ (Compounds with a Cisplatin sensitization value >0.02 μM but <0.2 μM are marked with “++.”)”.

Take `Nc1nn2cc(F)cnc2c1C(=O)Nc1cnccc1N1CCC(c2ncon2)CC1` [I-N-241, N-(4-(4-(1,2,4-oxadiazol-3-yl)piperidin-1-yl)pyridin-3-yl)-2-amino-6-fluoropyrazolo[1,5-a]pyrimidine-3-carboxamide]: the “Cisplatin Sensitization Assay” value is recorded as “+++ (Compounds with a Cisplatin sensitization value of <0.02 μM are marked with “+++.”)”.

As to `Cc1ncnn1-c1c(F)cncc1NC(=O)c1c(N)nn2cc(F)cnc12` [I-N-242, 2-amino-6-fluoro-N-(5-fluoro-4-(5-methyl-1H-1,2,4-triazol-1-yl)pyridin-3-yl)pyrazolo[1,5-a]pyrimidine-3-carboxamide], the “Cisplatin Sensitization Assay” value was “+ (Compounds with a Cisplatin sensitization value >0.2 μM but <5 μM are marked with “+.”)”.

`CC1(S(C)(=O)=O)CCN(c2ccncc2NC(=O)c2c(N)nn3cc(F)cnc23)CC1` [I-N-243, 2-amino-6-fluoro-N-(4-(4-methyl-4-(methylsulfonyl)piperidin-1-yl)pyridin-3-yl)pyrazolo[1,5-a]pyrimidine-3-carboxamide]: the “Cisplatin Sensitization Assay” value is “+++ (Compounds with a Cisplatin sensitization value of <0.02 μM are marked with “+++.”)”.

On to `Nc1nn2cc(F)cnc2c1C(=O)Nc1cnccc1N1CCN2C(=O)CCCC2C1` (stereo not shown) [I-N-244, 2-amino-6-fluoro-N-(4-(6-oxohexahydro-1H-pyrido[1,2-a]pyrazin-2(6H)-yl)pyridin-3-yl)pyrazolo[1,5-a]pyrimidine-3-carboxamide], for which the “Cisplatin Sensitization Assay” value was “+++ (Compounds with a Cisplatin sensitization value of <0.02 μM are marked with “+++.”)”.

In the case of `CC(C)N1CCN2CCN(c3ccncc3NC(=O)c3c(N)nn4cc(F)cnc34)CC2C1=O` (stereo not shown) [I-N-245, 2-amino-6-fluoro-N-(4-(8-isopropyl-9-oxohexahydro-1H-pyrazino[1,2-a]pyrazin-2(6H)-yl)pyridin-3-yl)pyrazolo[1,5-a]pyrimidine-3-carboxamide], the “Cisplatin Sensitization Assay” value is “++ (Compounds with a Cisplatin sensitization value >0.02 μM but <0.2 μM are marked with “++.”)”.

On to `Nc1nn2cc(F)cnc2c1C(=O)Nc1cncc(F)c1N1CCCC1` [I-N-246, 2-amino-6-fluoro-N-(5-fluoro-4-(pyrrolidin-1-yl)pyridin-3-yl)pyrazolo[1,5-a]pyrimidine-3-carboxamide], for which the “Cisplatin Sensitization Assay” value is recorded as “++ (Compounds with a Cisplatin sensitization value >0.02 μM but <0.2 μM are marked with “++.”)”.

On to `Nc1nn2cc(F)cnc2c1C(=O)Nc1cnccc1N1CCN2[C@@H](CCS2(=O)=O)C1` [I-N-247, (S)-2-amino-N-(4-(1,1-dioxidotetrahydro-2H-isothiazolo[2,3-a]pyrazin-5(3H)-yl)pyridin-3-yl)-6-fluoropyrazolo[1,5-a]pyrimidine-3-carboxamide], for which the “Cisplatin Sensitization Assay” value is on record as “+++ (Compounds with a Cisplatin sensitization value of <0.02 μM are marked with “+++.”)”.

As for `Nc1nn2cc(F)cnc2c1C(=O)Nc1cncc(F)c1N1CCN2C(=O)OC[C@@H]2C1` [I-N-248, (S)-2-amino-6-fluoro-N-(5-fluoro-4-(3-oxotetrahydro-1H-oxazolo[3,4-a]pyrazin-7(3H)-yl)pyridin-3-yl)pyrazolo[1,5-a]pyrimidine-3-carboxamide], the “Cisplatin Sensitization Assay” value is reported as “++ (Compounds with a Cisplatin sensitization value >0.02 μM but <0.2 μM are marked with “++.”)”.

Take `Nc1nn2cc(F)cnc2c1C(=O)Nc1cnccc1N1CCN(C(=O)C2COC2)CC1` [I-N-249]: the “Cisplatin Sensitization Assay” value is listed as “+++ (Compounds with a Cisplatin sensitization value of <0.02 μM are marked with “+++.”)”.

For the compound `Nc1nn2cc(F)cnc2c1C(=O)Nc1cncc(F)c1N1CCS(=O)(=O)CC1` [I-N-250, 2-amino-N-(4-(1,1-dioxidothiomorpholino)-5-fluoropyridin-3-yl)-6-fluoropyrazolo[1,5-a]pyrimidine-3-carboxamide], the “Cisplatin Sensitization Assay” value is reported as “++ (Compounds with a Cisplatin sensitization value >0.02 μM but <0.2 μM are marked with “++.”)”.

Take `CC(=O)N1CC2(CCN(c3ccncc3NC(=O)c3c(N)nn4cc(F)cnc34)CC2)C1` [I-N-251, N-(4-(2-acetyl-2,7-diazaspiro[3.5]nonan-7-yl)pyridin-3-yl)-2-amino-6-fluoropyrazolo[1,5-a]pyrimidine-3-carboxamide]: the “Cisplatin Sensitization Assay” value was “+++ (Compounds with a Cisplatin sensitization value of <0.02 μM are marked with “+++.”)”.
